Measurements published in US4416884A, “Piperazinylbenzoheterocyclic compounds” (Otsuka Pharmaceutical Co., Ltd., priority 1978, dated 1983).
≈ marks a conversion by molar mass, not a printed value. Counter-ions that a name gives are not always drawn. Like-named read-outs stand apart in the source and are kept apart here.

How the values were obtained:
Test in all cases: antimicrobial activity, serial dilution method on agar plate
Assay type in all cases: cell-based
[1] = test system: Pseudomonas aeruginosa ATCC 10145
Experimental: (§1) The antimicrobial activity of the following test compounds on various test organisms listed below was determined by the serial dilution method on agar plate (Heart Infusion agar produced by Difco Co.) (see CHEMOTHERAPY 22, pp. 1126-1128 (1974)), and the minimum inhibitory concentrations (mcg/ml) obtained are shown in Table 1 below.
(§2) A sample of each test organism was prepared so that the population of the organism was 1×10^8 cells/ml (O.D. 660 mμ=0.07 to 0.16) and 1×10^6 cells/ml (which was obtained by diluting the above 1×10^8 cells/ml preparation).

Shigella Sonnei EW 33 = conditions: read-out: Minimum Inhibitory Concentration
Experimental: as §1, §2

[2] = test system: Pseudomonas aeruginosa E-2
Experimental: as §1, §2

[3] = test system: Streptococcus pyogenes IID S-23
Experimental: as §1, §2

[4] = test system: Serattia marcescens IFO 12648
Experimental: as §1, §2

[5] = test system: Salmonella typhi 0-901 (NCTC 8393); conditions: Salmonella enterica
Experimental: as §1, §2

[6] = test system: Pseudomonas aeruginosa NCTC 10490
Experimental: as §1, §2

[7] = test system: Staphylococcus aureus FDA 209 P
Experimental: as §1, §2

[8] = test system: Escherichia Coli NIHJ JC-2 (IFO 12734); conditions: for MIC: Escherichia coli, read-out: Minimum Inhibitory Concentration
Experimental: as §1, §2

Proteus rettgeri NIH 96 = conditions: Providencia rettgeri
Experimental: as §1, §2

Klebsiella pneumoniae = test system: Klebsiella pneumoniae
Experimental: as §1, §2

[9] = ATCC10145, inoculum 1 × 10^6 cells/ml, read-out: Minimum Inhibitory Concentration
[10] = ATCC10145, inoculum 1 × 10^8 cells/ml, read-out: Minimum Inhibitory Concentration
[11] = E2, inoculum 1 × 10^6 cells/ml, read-out: Minimum Inhibitory Concentration
[12] = E2, inoculum 1 × 10^8 cells/ml, read-out: Minimum Inhibitory Concentration
[13] = IIDS23, inoculum 1 × 10^6 cells/ml, read-out: Minimum Inhibitory Concentration
[14] = IIDS23, inoculum 1 × 10^8 cells/ml, read-out: Minimum Inhibitory Concentration
[15] = inoculum 1 × 10^6 cells/ml, read-out: Minimum Inhibitory Concentration
[16] = inoculum 1 × 10^8 cells/ml, read-out: Minimum Inhibitory Concentration
[17] = read-out: Minimum Inhibitory Concentration, inoculum 1 × 10^6 cells/ml
[18] = read-out: Minimum Inhibitory Concentration, inoculum 1 × 10^8 cells/ml
[19] = NCTC10490, inoculum 1 × 10^6 cells/ml, read-out: Minimum Inhibitory Concentration
[20] = NCTC10490, inoculum 1 × 10^8 cells/ml, read-out: Minimum Inhibitory Concentration
[21] = FDA209, inoculum 1 × 10^6 cells/ml, read-out: Minimum Inhibitory Concentration
[22] = FDA209, inoculum 1 × 10^8 cells/ml, read-out: Minimum Inhibitory Concentration
[23] = NIH96, inoculum 1 × 10^6 cells/ml, read-out: Minimum Inhibitory Concentration
[24] = NIH96, inoculum 1 × 10^8 cells/ml, read-out: Minimum Inhibitory Concentration
[25] = ATCC10145, read-out: Minimum Inhibitory Concentration, inoculum 1 × 10^8 cells/ml
[26] = E2, read-out: Minimum Inhibitory Concentration, inoculum 1 × 10^8 cells/ml
[27] = IIDS23, read-out: Minimum Inhibitory Concentration, inoculum 1 × 10^8 cells/ml
[28] = NCTC10490, read-out: Minimum Inhibitory Concentration, inoculum 1 × 10^8 cells/ml
[29] = FDA209, read-out: Minimum Inhibitory Concentration, inoculum 1 × 10^8 cells/ml
[30] = NIH96, read-out: Minimum Inhibitory Concentration, inoculum 1 × 10^8 cells/ml

Row | Structure (SMILES) | MIC [1, 9] | MIC [1, 10] | MIC (Shigella Sonnei EW 33; inoculum 1 × 10^6 cells/ml) | MIC (Shigella Sonnei EW 33; inoculum 1 × 10^8 cells/ml) | MIC [2, 11] | MIC [2, 12] | MIC [3, 13] | MIC [3, 14] | MIC [4, 15] | MIC [4, 16] | MIC [5, 17] | MIC [5, 18] | MIC [6, 19] | MIC [6, 20] | MIC [7, 21] | MIC [7, 22] | MIC ([8]; inoculum 1 × 10^6 cells/ml) | MIC ([8]; inoculum 1 × 10^8 cells/ml) | MIC (Proteus rettgeri NIH 96; [24]) | MIC (Klebsiella pneumoniae; [16]) | also measured
1 | CC1CCc2c(N3CCN(C)CC3)c(F)cc3c(=O)c(C(=O)O)cn1c23 (centres unmarked) [Compound W, 8-(4-Methyl-1-piperazinyl)-9-fluoro-5-methyl-6,7-dihydro-1-oxo-1H,5H--benzo[ij]-quinolizine-2-carboxylic acid] | 1.6 µg/mL (≈ 4.45 µM) | 3.1 µg/mL (≈ 8.63 µM) | 0.2 µg/mL (≈ 0.556 µM) | 0.2 µg/mL (≈ 0.556 µM) | 3.1 µg/mL (≈ 8.63 µM) | 6.3 µg/mL (≈ 17.5 µM) | 1.6 µg/mL (≈ 4.45 µM) | 1.6 µg/mL (≈ 4.45 µM) | 0.4 µg/mL (≈ 1.11 µM) | 0.4 µg/mL (≈ 1.11 µM) | ≤ 0.05 µg/mL | 0.1 µg/mL (≈ 0.278 µM) | 1.6 µg/mL (≈ 4.45 µM) | 1.6 µg/mL (≈ 4.45 µM) | 0.4 µg/mL (≈ 1.11 µM) | 0.4 µg/mL (≈ 1.11 µM) | 0.4 µg/mL (≈ 1.11 µM) | 0.4 µg/mL (≈ 1.11 µM) | 0.4 µg/mL (≈ 1.11 µM) | 0.4 µg/mL (≈ 1.11 µM) | MIC (Proteus rettgeri NIH 96; [23]): 0.4 µg/mL (≈ 1.11 µM); MIC (Klebsiella pneumoniae; [15]): 0.2 µg/mL (≈ 0.556 µM)
2 | CC1CCc2c(N3CCNCC3)c(F)cc3c(=O)c(C(=O)O)cn1c23 (centres unmarked) [Compound X, 8-(1-Piperazinyl)-9-fluoro-5-methyl-6,7-dihydro-1-oxo-1H,5H--benzo[ij]quinolizine-2-carboxylic acid hydrobromide] |  |  |  | 0.2 µg/mL |  |  |  |  |  |  |  |  |  |  |  |  |  |  |  |  | MIC [1, 25]: 1.6 µg/mL; MIC [2, 26]: 1.6 µg/mL; MIC [3, 27]: 3.1 µg/mL; MIC [4, 18]: 0.8 µg/mL; MIC [5, 16]: 0.1 µg/mL; MIC [6, 28]: 1.6 µg/mL; MIC [7, 29]: 0.8 µg/mL; MIC [8]: 0.4 µg/mL; MIC (Proteus rettgeri NIH 96; [30]): 0.1 µg/mL; MIC (Klebsiella pneumoniae; [18]): 0.4 µg/mL
3 | CC1Cc2c(N3CCNCC3)c(Cl)cc3c(=O)c(C(=O)O)cn1c23 (centres unmarked) [Compound Y, 8-Chloro-9-(1-piperazinyl)-2-methyl-6-oxo-1,2-dihydro-6H--pyrrolo[3,2,1-ij]-quinoline-5-carboxylic acid] |  |  | ≤ 0.05 µg/mL | 0.1 µg/mL (≈ 0.288 µM) |  |  |  |  |  |  |  |  |  |  |  |  |  |  |  |  | MIC ([1]; ATCC10145, read-out: Minimum Inhibitory Concentration, inoculum 1 × 10^6 cells/ml): 1.6 µg/mL (≈ 4.6 µM); MIC [1, 25]: 1.6 µg/mL (≈ 4.6 µM); MIC ([2]; E2, read-out: Minimum Inhibitory Concentration, inoculum 1 × 10^6 cells/ml): 3.1 µg/mL (≈ 8.91 µM); MIC [2, 26]: 3.1 µg/mL (≈ 8.91 µM); MIC ([3]; IIDS23, read-out: Minimum Inhibitory Concentration, inoculum 1 × 10^6 cells/ml): 6.3 µg/mL (≈ 18.1 µM); MIC [3, 27]: 12.5 µg/mL (≈ 35.9 µM); MIC [4, 17]: 0.4 µg/mL (≈ 1.15 µM); MIC [4, 18]: 0.8 µg/mL (≈ 2.3 µM); MIC [5, 15]: ≤ 0.05 µg/mL; MIC [5, 16]: 0.1 µg/mL (≈ 0.288 µM); MIC ([6]; NCTC10490, read-out: Minimum Inhibitory Concentration, inoculum 1 × 10^6 cells/ml): 1.6 µg/mL (≈ 4.6 µM); MIC [6, 28]: 1.6 µg/mL (≈ 4.6 µM); MIC ([7]; FDA209, read-out: Minimum Inhibitory Concentration, inoculum 1 × 10^6 cells/ml): 3.1 µg/mL (≈ 8.91 µM); MIC [7, 29]: 3.1 µg/mL (≈ 8.91 µM); MIC [8]: 0.2 µg/mL (≈ 0.575 µM); Minimum Inhibitory Concentration ([8]; inoculum 1 × 10^6 cells/ml): 0.2 µg/mL; MIC (Proteus rettgeri NIH 96; NIH96, read-out: Minimum Inhibitory Concentration, inoculum 1 × 10^6 cells/ml): 0.1 µg/mL (≈ 0.288 µM); MIC (Proteus rettgeri NIH 96; [30]): 0.2 µg/mL (≈ 0.575 µM); MIC (Klebsiella pneumoniae; [17]): 0.2 µg/mL (≈ 0.575 µM); MIC (Klebsiella pneumoniae; [18]): 0.4 µg/mL (≈ 1.15 µM)
4 | CC1Cc2c(N3CCN(C)CC3)c(Cl)cc3c(=O)c(C(=O)O)cn1c23 (centres unmarked) [Compound Z, 8-Chloro-9-(4-methyl-1-piperazinyl)-2-methyl-6-oxo-1,2-dihydro-6H--pyrrolo[3,2,1-ij]-quinoline-5-carboxylic acid] | 3.1 µg/mL (≈ 8.57 µM) | 3.1 µg/mL (≈ 8.57 µM) | 0.2 µg/mL (≈ 0.553 µM) | 0.2 µg/mL (≈ 0.553 µM) | 3.1 µg/mL (≈ 8.57 µM) | 6.3 µg/mL (≈ 17.4 µM) | 6.3 µg/mL (≈ 17.4 µM) | 12.5 µg/mL (≈ 34.5 µM) | 0.4 µg/mL (≈ 1.11 µM) | 0.4 µg/mL (≈ 1.11 µM) | 0.1 µg/mL (≈ 0.276 µM) | 0.1 µg/mL (≈ 0.276 µM) | 3.1 µg/mL (≈ 8.57 µM) | 3.1 µg/mL (≈ 8.57 µM) | 0.4 µg/mL (≈ 1.11 µM) | 0.8 µg/mL (≈ 2.21 µM) | 0.2 µg/mL (≈ 0.553 µM) | 0.2 µg/mL (≈ 0.553 µM) | 0.4 µg/mL (≈ 1.11 µM) | 0.2 µg/mL (≈ 0.553 µM) | MIC (Proteus rettgeri NIH 96; [23]): 0.2 µg/mL (≈ 0.553 µM); MIC (Klebsiella pneumoniae; [15]): 0.2 µg/mL (≈ 0.553 µM)
5 | CC1Cc2c(N3CCN(C)CC3)c(F)cc3c(=O)c(C(=O)O)cn1c23 (centres unmarked) [a] | 1.6 µg/mL (≈ 4.63 µM) | 1.6 µg/mL (≈ 4.63 µM) | 0.1 µg/mL (≈ 0.29 µM) | 0.1 µg/mL (≈ 0.29 µM) | 1.6 µg/mL (≈ 4.63 µM) | 1.6 µg/mL (≈ 4.63 µM) | 3.1 µg/mL (≈ 8.98 µM) | 6.3 µg/mL (≈ 18.2 µM) | 0.2 µg/mL (≈ 0.579 µM) | 0.2 µg/mL (≈ 0.579 µM) | ≤ 0.05 µg/mL | ≤ 0.05 µg/mL | 1.6 µg/mL (≈ 4.63 µM) | 1.6 µg/mL (≈ 4.63 µM) | 0.4 µg/mL (≈ 1.16 µM) | 0.8 µg/mL (≈ 2.32 µM) | 0.1 µg/mL (≈ 0.29 µM) | 0.1 µg/mL (≈ 0.29 µM) | 0.2 µg/mL (≈ 0.579 µM) | 0.2 µg/mL (≈ 0.579 µM) | MIC (Proteus rettgeri NIH 96; [23]): 0.1 µg/mL (≈ 0.29 µM); MIC (Klebsiella pneumoniae; [15]): 0.2 µg/mL (≈ 0.579 µM)
6 | CC1CCc2c(N3CCN(C(=O)C(F)(F)F)CC3)c(Cl)cc3c(=O)c(C(=O)O)cn1c23 (centres unmarked) [b] |  | 3.13 µg/mL (≈ 6.84 µM) |  | 1.56 µg/mL (≈ 3.41 µM) |  | 3.13 µg/mL (≈ 6.84 µM) |  | 6.25 µg/mL (≈ 13.7 µM) |  |  |  | 0.39 µg/mL (≈ 0.852 µM) |  |  |  | 3.13 µg/mL (≈ 6.84 µM) |  | 0.39 µg/mL (≈ 0.852 µM) | 0.2 µg/mL (≈ 0.437 µM) | 0.39 µg/mL (≈ 0.852 µM) | MIC [4, 18]: 1.56 µg/mL (≈ 3.41 µM); MIC [6, 28]: 1.56 µg/mL (≈ 3.41 µM)
